Holding throughout (format): cell-based
Settings in all cases: Table 3, compounds 201-283

The target in one test is T1, TRPML3 (Homo sapiens, UniProt Q8TDD5).
T1 construct: expressed in transfected cells
T1 sequence (Q8TDD5 1-553): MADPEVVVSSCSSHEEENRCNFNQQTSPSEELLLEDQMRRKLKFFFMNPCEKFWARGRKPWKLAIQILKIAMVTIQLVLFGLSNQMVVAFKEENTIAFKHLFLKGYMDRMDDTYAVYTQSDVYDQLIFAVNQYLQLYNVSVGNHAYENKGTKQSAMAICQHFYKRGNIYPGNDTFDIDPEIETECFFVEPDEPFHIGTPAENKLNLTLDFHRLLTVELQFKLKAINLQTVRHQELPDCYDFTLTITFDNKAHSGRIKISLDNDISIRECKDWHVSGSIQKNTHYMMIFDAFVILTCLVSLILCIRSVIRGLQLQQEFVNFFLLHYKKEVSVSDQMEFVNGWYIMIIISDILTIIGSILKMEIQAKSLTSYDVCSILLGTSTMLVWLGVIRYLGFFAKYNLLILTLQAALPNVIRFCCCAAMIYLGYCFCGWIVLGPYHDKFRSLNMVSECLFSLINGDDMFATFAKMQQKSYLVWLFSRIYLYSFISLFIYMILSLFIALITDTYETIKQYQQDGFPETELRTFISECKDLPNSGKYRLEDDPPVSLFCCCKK
The test is described as follows: Fluorescent TRPML3 assay (as for TRPML1). Put shortly:
(§1)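 HEK-293 Trex cells with tet-inducible (0.5 ug/mL doxycycline, overnight) surface-targeted mutant channel, Fluo4-AM loaded, suspended in Ringer's with 10 mM calcium. Compounds tested 20 µM to 6 nM final, half-log steps, triplicate; fluorescence at ex 480/em 540 nm. EC50 by non-linear regression of percent activity versus plate controls.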

A further test has as its target human TRPML1 (Homo sapiens, UniProt Q9GZU1). Description: Fluorescent TRPML1 assay (Fluo4-AM calcium fluorescence, HEK-293 Trex cells). The procedure, abridged: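 Tet-inducible HEK-293 Trex cells stably expressing surface-targeted mutant human TRPML1, induced with 0.5 ug/mL doxycycline overnight, loaded with Fluo4-AM and suspended in Ringer's with 10 mM calcium. Compounds tested from 20 μM to 6 nM final, half-log steps, in triplicate; fluorescence (ex 480/em 540) normalised to plate controls, EC50 by non-linear regression.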

In another test the target is T2, TRPML2 (Homo sapiens, UniProt Q8IZK6).
T2 construct: expressed in transfected cells
T2 sequence (Q8IZK6 1-566): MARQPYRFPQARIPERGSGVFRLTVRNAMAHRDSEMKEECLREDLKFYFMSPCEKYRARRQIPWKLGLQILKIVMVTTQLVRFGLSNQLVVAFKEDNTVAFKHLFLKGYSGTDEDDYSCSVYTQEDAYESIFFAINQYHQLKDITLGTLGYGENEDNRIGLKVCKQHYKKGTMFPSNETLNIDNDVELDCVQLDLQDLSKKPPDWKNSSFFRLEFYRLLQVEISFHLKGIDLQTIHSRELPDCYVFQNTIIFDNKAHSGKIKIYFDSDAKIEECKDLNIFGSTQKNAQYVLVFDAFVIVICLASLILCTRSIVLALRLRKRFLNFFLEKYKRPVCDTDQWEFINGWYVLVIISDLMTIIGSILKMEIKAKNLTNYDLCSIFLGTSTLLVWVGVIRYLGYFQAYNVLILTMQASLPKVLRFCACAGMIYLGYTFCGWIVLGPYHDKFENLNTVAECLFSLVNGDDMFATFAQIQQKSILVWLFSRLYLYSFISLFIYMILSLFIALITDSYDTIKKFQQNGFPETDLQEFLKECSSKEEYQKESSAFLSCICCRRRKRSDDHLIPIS
Description: Fluorescent TRPML2 assay (as for TRPML1). Put shortly: as §1

The structures appear in SMILES notation.

Sequence of human TRPML1 (Q9GZU1 whole entry L15A/L16A/L577A/L578A, form open): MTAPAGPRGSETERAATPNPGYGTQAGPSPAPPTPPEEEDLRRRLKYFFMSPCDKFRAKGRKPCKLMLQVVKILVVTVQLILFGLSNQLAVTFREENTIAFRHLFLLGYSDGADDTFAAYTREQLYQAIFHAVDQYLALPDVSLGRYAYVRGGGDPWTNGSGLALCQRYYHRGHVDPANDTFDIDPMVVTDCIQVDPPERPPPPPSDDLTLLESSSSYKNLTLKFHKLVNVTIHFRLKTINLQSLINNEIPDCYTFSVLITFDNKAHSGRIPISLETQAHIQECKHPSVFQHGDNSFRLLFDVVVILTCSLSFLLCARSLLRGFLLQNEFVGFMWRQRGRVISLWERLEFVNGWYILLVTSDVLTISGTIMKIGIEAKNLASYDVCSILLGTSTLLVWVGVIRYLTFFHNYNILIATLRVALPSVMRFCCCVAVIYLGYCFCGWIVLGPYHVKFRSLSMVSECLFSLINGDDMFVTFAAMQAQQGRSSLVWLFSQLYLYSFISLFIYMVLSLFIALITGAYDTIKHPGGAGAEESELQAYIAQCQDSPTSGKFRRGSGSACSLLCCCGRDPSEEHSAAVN

The EC50 is the concentration giving half of the maximal effect. In the case of `C[C@@H]1CN(c2ncnc3c2c(C2CCC2)cn3-c2cccc(Cl)c2)[C@@H](C)CN1C(=O)CC(C)(C)C(F)(F)F` [Compound 258, 1-((2R,5S)-4-(7-(3-chlorophenyl)-5-cyclobutyl-7H-pyrrolo[2,3-d]pyrimidin-4-yl)-2,5-dimethylpiperazin-1-yl)-4,4,4-trifluoro-3,3-dimethylbutan-1-one], the values for the EC50 on TRPML3, at human TRPML1 and on TRPML2 were 100 to 500 nM, 100 to 500 nM and 500 to 2000 nM, respectively.

`C[C@@H]1CN(c2ncnc3c2c(C2CCC2)cn3-c2cc(F)cc(F)c2)[C@@H](C)CN1C(=O)C(C)(C)C(F)(F)F` [Compound 259, 1-((2R,5S)-4-(5-cyclobutyl-7-(3,5-difluorophenyl)-7H-pyrrolo[2,3-d]pyrimidin-4-yl)-2,5-dimethylpiperazin-1-yl)-3,3,3-trifluoro-2,2-dimethylpropan-1-one]: the EC50 was in the range of 100 to 500 nM on TRPML3, 100 to 500 nM on human TRPML1 and 500 to 2000 nM at TRPML2.

`C[C@@H]1CN(c2ncnc3c2c(C2CCC2)cn3-c2cccc(C(F)(F)F)c2)[C@@H](C)CN1C(=O)C1(F)CC1` [Compound 260, ((2R,5S)-4-(5-cyclobutyl-7-(3-(trifluoromethyl)phenyl)-7H-pyrrolo[2,3-d]pyrimidin-4-yl)-2,5-dimethylpiperazin-1-yl)(1-fluorocyclopropyl)methanone]: the figures for the EC50 at TRPML3, at human TRPML1 and at TRPML2 were 500 to 2000 nM, 100 to 500 nM and over 2000 nM, respectively.

As to `C[C@@H]1CN(c2ncnc3c2c(C2CCC2)cn3-c2cccc(C(F)(F)F)c2)[C@@H](C)CN1C(=O)C(C)(C)C` [Compound 261, 1-((2R,5S)-4-(5-cyclobutyl-7-(3-(trifluoromethyl)phenyl)-7H-pyrrolo[2,3-d]pyrimidin-4-yl)-2,5-dimethylpiperazin-1-yl)-2,2-dimethylpropan-1-one], the EC50 is 500 to 2000 nM at TRPML3, under 100 nM at human TRPML1 and over 2000 nM at TRPML2.

Turning to `C[C@@H]1CN(c2ncnc3c2c(C2CCC2)cn3-c2cccc(C(F)(F)F)c2)[C@@H](C)CN1C(=O)CC(C)(C)C(F)(F)F` [Compound 262, 1-((2R,5S)-4-(5-cyclobutyl-7-(3-(trifluoromethyl)phenyl)-7H-pyrrolo[2,3-d]pyrimidin-4-yl)-2,5-dimethylpiperazin-1-yl)-4,4,4-trifluoro-3,3-dimethylbutan-1-one], the EC50 at TRPML3 lay within 500 to 2000 nM; on human TRPML1, 100 to 500 nM; on TRPML2, 500 to 2000 nM.

Regarding `C[C@@H]1CN(c2ncnc3c2c(C2CCC2)cn3-c2cccc(C(F)(F)F)c2)[C@@H](C)CN1C(=O)C(C)(C)C(F)(F)F` [Compound 263, 1-((2R,5S)-4-(5-cyclobutyl-7-(3-(trifluoromethyl)phenyl)-7H-pyrrolo[2,3-d]pyrimidin-4-yl)-2,5-dimethylpiperazin-1-yl)-3,3,3-trifluoro-2,2-dimethylpropan-1-one], the EC50 on TRPML3 is under 100 nM; at human TRPML1 it was 100 to 500 nM; on TRPML2, 500 to 2000 nM.

As to `COC(C)(C)C(=O)N1C[C@H](C)N(c2ncnc3c2c(C2CC2)cn3-c2cc(C#N)ccn2)C[C@H]1C` [Compound 264, 2-(5-cyclopropyl-4-((2S,5R)-4-(2-methoxy-2-methylpropanoyl)-2,5-dimethylpiperazin-1-yl)-7H-pyrrolo[2,3-d]pyrimidin-7-yl)isonicotinonitrile], the half-maximal effective concentration (EC50) was under 100 nM at TRPML3, under 100 nM on human TRPML1 and 500 to 2000 nM on TRPML2.

In the case of `COC(C)(C)C(=O)N1CCN(c2ncnc3c2c(C2CC2)cn3-c2cc(C#N)ccn2)C[C@H]1C` [Compound 265, (R)-2-(5-cyclopropyl-4-(4-(2-methoxy-2-methylpropanoyl)-3-methylpiperazin-1-yl)-7H-pyrrolo [2,3-d]pyrimidin-7-yl)isonicotinonitrile], the EC50 on TRPML3 was under 100 nM; at human TRPML1, under 100 nM; at TRPML2, 100 to 500 nM.

Take `COC(C)(C)C(=O)N1CCN(c2ncnc3c2c(-c2ccccc2F)cn3-c2cc(C#N)ccn2)C[C@H]1C` [Compound 266, (R)-2-(5-(2-fluorophenyl)-4-(4-(2-methoxy-2-methylpropanoyl)-3-methylpiperazin-1-yl)-7H-pyrrolo[2,3-d]pyrimidin-7-yl)isonicotinonitrile]: the results for the EC50 at TRPML3, at human TRPML1 and on TRPML2 were under 100 nM, under 100 nM and 100 to 500 nM, respectively.

For `COC1(C(=O)N2C[C@H](C)N(c3ncnc4c3c(-c3ccccc3F)cn4-c3cc(C#N)ccn3)C[C@H]2C)CC1` [Compound 267, 2-(5-(2-fluorophenyl)-4-((2S,5R)-4-(1-methoxycyclopropane-1-carbonyl)-2,5-dimethylpiperazin-1-yl)-7H-pyrrolo [2,3-d]pyrimidin-7-yl)isonicotinonitrile], the EC50 at TRPML3 is under 100 nM; at human TRPML1 it was under 100 nM; on TRPML2, 100 to 500 nM.

As for `COC(C)(C)C(=O)N1C[C@H](C)N(c2ncnc3c2c(N2CCC2)cn3-c2cc(C#N)ccn2)C[C@H]1C` [Compound 268, 2-(5-(azetidin-1-yl)-4-((2S,5R)-4-(2-methoxy-2-methylpropanoyl)-2,5-dimethylpiperazin-1-yl)-7H-pyrrolo[2,3-d]pyrimidin-7-yl)isonicotinonitrile], the EC50 at TRPML3 was under 100 nM; on human TRPML1, under 100 nM; at TRPML2, 500 to 2000 nM.

Take `COC(C)(C)C(=O)N1CCN(c2ncnc3c2c(N2CCC2)cn3-c2cc(C#N)ccn2)C[C@H]1C` [Compound 269, (R)-2-(5-(azetidin-1-yl)-4-(4-(2-methoxy-2-methylpropanoyl)-3-methylpiperazin-1-yl)-7H-pyrrolo[2,3-d]pyrimidin-7-yl)isonicotinonitrile]: the EC50 on TRPML3, at human TRPML1 and at TRPML2 was under 100 nM throughout.

Take `C[C@@H]1CN(c2ncnc3c2c(N2CCC2)cn3-c2cc(C#N)ccn2)CCN1C(=O)C1(F)CC1` [Compound 270, (R)-2-(5-(azetidin-1-yl)-4-(4-(1-fluorocyclopropane-1-carbonyl)-3-methylpiperazin-1-yl)-7H-pyrrolo[2,3-d]pyrimidin-7-yl)isonicotinonitrile]: the EC50 is under 100 nM at TRPML3, under 100 nM at human TRPML1 and 100 to 500 nM at TRPML2.

On to `C[C@@H]1CN(c2ncnc3c2c(N2CCC2)cn3-c2cc(C#N)ccn2)CCN1C(=O)C(C)(C)C` [Compound 271, (R)-2-(5-(azetidin-1-yl)-4-(3-methyl-4-pivaloylpiperazin-1-yl)-7H-pyrrolo[2,3-d]pyrimidin-7-yl)isonicotinonitrile], for which the EC50 at TRPML3, at human TRPML1 and at TRPML2 was under 100 nM each time.

For `CC(C)CC(=O)N1CCN(c2ncnc3c2c(N2CCC2)cn3-c2cc(C#N)ccn2)C[C@H]1C` [Compound 272, (R)-2-(5-(azetidin-1-yl)-4-(3-methyl-4-(3-methylbutanoyl)piperazin-1-yl)-7H-pyrrolo[2,3-d]pyrimidin-7-yl)isonicotinonitrile], the half-maximal effective concentration (EC50) on TRPML3 is under 100 nM; on human TRPML1, under 100 nM; on TRPML2 it was 100 to 500 nM.

`C[C@@H]1CN(c2ncnc3c2c(N2CCC2)cn3-c2cc(C#N)ccn2)[C@@H](C)CN1C(=O)C(C)(C)C` [Compound 276, 2-(5-(azetidin-1-yl)-4-((2S,5R)-2,5-dimethyl-4-pivaloylpiperazin-1-yl)-7H-pyrrolo[2,3-d]pyrimidin-7-yl)isonicotinonitrile]: the EC50 was under 100 nM at TRPML3, under 100 nM at human TRPML1 and 100 to 500 nM on TRPML2.

As to `COC(C)(C)C(=O)N1C[C@H](C)N(c2ncnc3c2c(N2CCC2)cn3-c2cccc(F)c2)C[C@H]1C` [Compound 277, 1-((2R,5S)-4-(5-(azetidin-1-yl)-7-(3-fluorophenyl)-7H-pyrrolo[2,3-d]pyrimidin-4-yl)-2,5-dimethylpiperazin-1-yl)-2-methoxy-2-methylpropan-1-one], the figures for the EC50 at TRPML3, on human TRPML1 and at TRPML2 were 100 to 500 nM, under 100 nM and 500 to 2000 nM, respectively.

Source of the values: patent US20240398812A1 (Caraway Therapeutics, Inc., priority 2021, published 2024).
